Target: T1, Poly(ADP-Ribose) Polymerase type 1 (PARP-1) (Homo sapiens, UniProt P09874)
T1 construct: gene PARP1
Experiment: in vitro colorimetric PARP-1 activity assay
Type: biochemical

T1 sequence (P09874 2-1014): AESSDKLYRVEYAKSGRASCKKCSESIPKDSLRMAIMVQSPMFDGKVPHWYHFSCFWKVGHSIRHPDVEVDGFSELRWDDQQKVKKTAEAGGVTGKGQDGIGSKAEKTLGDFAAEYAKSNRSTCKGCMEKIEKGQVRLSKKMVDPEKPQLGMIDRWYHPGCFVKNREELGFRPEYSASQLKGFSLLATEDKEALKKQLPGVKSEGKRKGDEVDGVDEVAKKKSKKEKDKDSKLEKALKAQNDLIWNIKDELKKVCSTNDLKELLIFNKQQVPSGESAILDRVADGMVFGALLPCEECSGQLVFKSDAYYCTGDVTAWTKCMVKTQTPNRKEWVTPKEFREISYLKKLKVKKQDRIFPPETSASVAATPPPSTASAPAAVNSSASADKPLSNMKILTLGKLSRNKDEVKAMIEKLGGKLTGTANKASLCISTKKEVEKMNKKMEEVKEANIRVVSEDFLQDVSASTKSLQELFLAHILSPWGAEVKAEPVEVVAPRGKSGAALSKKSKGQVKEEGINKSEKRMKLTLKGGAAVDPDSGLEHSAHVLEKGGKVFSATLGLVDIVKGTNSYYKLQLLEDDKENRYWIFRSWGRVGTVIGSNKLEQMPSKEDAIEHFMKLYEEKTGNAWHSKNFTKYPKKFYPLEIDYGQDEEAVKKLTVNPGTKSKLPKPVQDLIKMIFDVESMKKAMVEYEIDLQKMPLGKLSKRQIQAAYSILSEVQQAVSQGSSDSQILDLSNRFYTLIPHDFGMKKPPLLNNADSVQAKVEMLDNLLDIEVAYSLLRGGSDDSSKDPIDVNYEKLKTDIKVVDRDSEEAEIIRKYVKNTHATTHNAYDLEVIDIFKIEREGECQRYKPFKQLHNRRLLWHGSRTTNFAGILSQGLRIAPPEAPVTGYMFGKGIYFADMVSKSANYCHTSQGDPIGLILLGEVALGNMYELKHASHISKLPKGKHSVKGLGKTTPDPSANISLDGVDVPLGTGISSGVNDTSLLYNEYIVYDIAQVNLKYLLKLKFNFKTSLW

Work on RAPTA-T yielded an IC50 of 400 µM.
